Experimental data as given in patent publication US11078534B2, “Photocleavable nucleotide reagents with high stability” (Roche Molecular Systems, Inc., priority 2017, dated 2021).

Key:
[1] = Thermostability study at 65° C. (UPLC-MS); assay type: physicochemical; conditions: up to 120 h; for degradation at 65° C. (percentage of starting material and degradation products, peak areas at 260 nm): 300 μM, 40% DMSO, 1.0 M potassium acetate
Method: An aqueous mixture was prepared, containing 300 μM dATP-SPh-NPP, 40% DMSO and 1.0 M potassium acetate. For reference another mixture with 300 μM dATP replacing dATP-SPh-NPP was prepared. 150 μL of each mixture were incubated at 65° C. in a Thermoshaker. After 0, 2, 18, 25, and 120 h samples of each solution (20 μL) were analyzed by UPLC-MS (Ultra performance liquid chromatography—mass spectrometry). The peak areas at 260 nm were used to calculate the percentage of starting material and degradation products.

[2] = Photocleavage by UV-LED irradiation (UPLC-MS); assay type: physicochemical; conditions: UV-LED λmax=393 nm
Method: Two aqueous mixtures of dATP-SPh-NPP and ATP-DMNPE (300 μM each) were prepared in sodium phosphate buffer (100 mM, pH 7.0). Both samples were irradiated simultaneously with light from an UV-LED lamp (InGaN, Quantum well, λmax=393 nm, 0.18 W/LED) in open vials without shaking or stirring. After 0, 1, 2, 4, 8, and 16 min. the irradiation was shortly paused for sample removal (20 μL) and subsequent UPLC-MS analysis. The peak areas at 260 nm were used to calculate the percentage of starting material and photocleavage products. The molecular identities of the starting materials and cleavage products were confirmed by mass spectrometry.

polymerase enzyme = experiment: Real-Time PCR (TaqMan PCR) amplification with caged dATP, with and without UV exposure; assay type: biochemical; conditions: 400 μM dATP-SPh-NPP instead of dATP, 400 cp target DNA
Method: Real-Time PCR (TaqMan® PCR) mixtures with a total volume of 50 μL were prepared by combining three components termed PCR master mixture (20 μL), buffer mixture (20 μL), and dNTP mixture (10 μL). All PCR components were prepared from DEPC water. The PCR master mixture contained tricine buffer (pH 8.2), potassium acetate, glycerol, DMSO, detergent, target DNA (400 cp), polymerase aptamer, probe, primers, SYBR green dye, and polymerase enzyme. The buffer mixture contained manganese acetate (8.3 mM) and imidazole (0, 3.0, or 6.0 mM). The dNTP mixture contained dATP (400 μM), dCTP (400 μM), dGTP (400 μM), and dUTP (800 μM). Another dNTP mixture contained dATP-SPh-NPP (400 μM) instead of dATP. The final concentration of DNA target was 400 cp/reaction.
TaqMan® PCRs of equal composition were positioned on two separate sections of a 96-well plate. Each section contained PCR mixtures with regular dNTPs and PCR mixtures containing dATP-SPh-NPP. Each PCR was prepared as triplicate. One section of the plate was covered with aluminum foil, whereas the other section was exposed to light from an UV-LED lamp (InGaN, Quantum well, λmax=393 nm, 0.18 W/LED) for 8.0 min. at room temperature. […] The analysis of PCR growth curves was performed from fluorescence data collected in the Cy5.5 channel, while analysis of melting curves was based on fluorescence data collected in the FAM channel (465-510 nm).

[3] = 5′-hydroxyl protecting group on phosphoramidites; cited from earlier work

Row | Molecule | degradation at 65° C. (percentage of starting material and degradation products, peak areas at 260 nm) [1] | irradiation time for full cleavage ([2]; 300 μM, 100 mM sodium phosphate buffer pH 7.0) [min] | photocleavage speed compared to ATP-DMNPE ([2]; both irradiated simultaneously, pH 7.0) | dATP released by irradiation ([2]; irradiation for 5 minutes, 300 μM, 100 mM sodium phosphate buffer pH 7.0) [%] | thermostability compared to dATP [1] | PCR amplification after UV irradiation (polymerase enzyme; UV light for 8.0 min. at room temperature) | PCR amplification, no UV exposure (polymerase enzyme; no UV exposure) | increase in photo-deprotection efficiency compared to conventional NPPOC [3] [fold]
1 | Nc1ncnc2c1ncn2[C@H]1C[C@H](O)[C@@H](COP(=O)(O)OP(=O)(O)OP(=O)(O)O)O1 [dATP, reference compound] | quickly degraded to the mono- and diphosphates |  |  |  |  |  |  | 
2 | thiophenyl o-nitrophenylpropyl dATP [dATP-SPh-NPP] | no degradation products were observed | 8 | significantly faster | > 90 | significantly more thermostable than dATP | leads to DNA amplification | prevents PCR amplification | 
3 | thiophenyl-2-(2-nitrophenyl)-propoxycarbonyl [SPh-NPPOC] |  |  |  |  |  |  |  | 12
